Counter-ions that a name gives are not always drawn. Like-named read-outs stand apart in the source and are kept apart here. Where a SMILES comes first, the peptide text is derived from it.
How the values were obtained:
[1] = test system: fibrin-induced microglia activation; test: Image-based assay of fibrin-induced microglia activation (HTS and dose response); type: cell-based, rat; conditions: primary microglia HTS, fibrin stimulation; for inhibition at 10 µM: Rattus norvegicus, Microglia, read-out: Fibrin % inhibition
[2] = test system: LPS-induced microglia activation; test: Image-based assay of LPS-induced microglia activation (HTS and dose response); type: cell-based, rat; conditions: for inhibition at 10 µM: Rattus norvegicus, Microglia, read-out: LPS % inhibition
[3] = test system: fibrin- and LPS-induced microglia activation; test: cells; type: cell-based, rat
primary rat microglia [4] = test system: primary rat microglia
primary rat microglia [5] = test: Cell toxicity (dead cells, size <150 μm2) in coated fibrin (cFib) assay; conditions: primary microglia HTS;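 also: share of dead cells sized under 150 µm2 at 10 µM in fibrin-stimulated microglia HTS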
[6] = primary microglia HTS, LPS stimulation, compounds at 10 μM
[7] = quadrant by fibrin and LPS inhibition, HTS at 10 μM
[8] = fibrin assay, dead cells (size <150 μm2)
[9] = classification by fibrin and LPS inhibition, HTS at 10 μM
[10] = fibrin assay, dead cells (size <150 μm2), compounds at 10 μM
[11] = cell size >800 μm2 as marker of activation
[12] = classification by fibrin and LPS inhibition in HTS
[13] = fibrin stimulation, cell size <150 μm2 as marker of toxicity
[14] = 48 h, primary microglia HTS, LPS stimulation, cell size >800 μm2 as marker of activation

| Compound | inhibition at 10 µM ([1]; compounds at 10 μM) [%] | inhibition at 10 µM [2, 6] [%] | Quadrant (FIG. 5b) [3, 7] | LPS % cell toxicity (primary rat microglia [4]; rat) [%] | Fibrin % cell toxicity (primary rat microglia [5]; [8]) [%] | inhibition at 10 µM [1, 11] [%] | Quadrant (FIG. 5b) [3, 12] | Fibrin % cell toxicity (primary rat microglia [5]; [13]) [%] | also measured |
| --- | --- | --- | --- | --- | --- | --- | --- | --- | --- |
| CC1(C)C(C=C(Cl)Cl)C1C(=O)OC(C#N)c1cccc(Oc2ccccc2)c1 (stereo not drawn) [Alpha-cypermethrin] | -15 | 11 | Q4 | 0 | 1 |  |  |  |  |
| C[C@@H]1CC[C@H]2[C@@H](C)C(=O)O[C@@H]3O[C@@]4(C)CC[C@@H]1[C@]32OO4 [Artemisinin] | -25 | 12 | Q4 | 0 | 0 |  |  |  |  |
| CC(=O)[C@H]1CC[C@H]2[C@@H]3C=CC4=CC(=O)CC[C@@]4(C)[C@@H]3CC[C@]12C [Dydrogesterone] | -11 | 4 |  | 0 |  |  |  |  | Quadrant (FIG. 5b) [3, 9]: Q4; Fibrin % cell toxicity (primary rat microglia [5]; [10]): 0% |
| C[C@@H]1O[C@@H](OC[C@H]2O[C@@H](Oc3c(-c4ccc(O)c(O)c4)oc4cc(O)cc(O)c4c3=O)[C@H](O)[C@@H](O)[C@@H]2O)[C@H](O)[C@H](O)[C@H]1O [Rutin] |  |  |  | 0 |  | 1 | Q4 | 1 | inhibition at 10 µM ([2]; 48 h): 18% |
| CC/C=C\C/C=C\C/C=C\C/C=C\C/C=C\C/C=C\CCC(=O)O [Doconexent] | 3 | 11 |  | 0 |  |  |  |  | Quadrant (FIG. 5b) [3, 9]: Q4; Fibrin % cell toxicity (primary rat microglia [5]; [10]): 1% |
| OCCN1CCN(CCCN2c3ccccc3Sc3ccc(Cl)cc32)CC1 [Perphenazine] |  |  |  | 1 |  | 23 | Q4 | 1 | inhibition at 10 µM ([2]; 48 h): 23% |
| OC1(c2ccc(Cl)c(C(F)(F)F)c2)CCN(CCCC(c2ccc(F)cc2)c2ccc(F)cc2)CC1 [Penfluridol] |  |  |  | 0 |  | 3 | Q4 | 1 | inhibition at 10 µM [2, 14]: 8% |
| CN1CCC[C@@H]1Cc1c[nH]c2ccc(CCS(=O)(=O)c3ccccc3)cc12 [Eletriptan Hydrobromide] | -14 | 12 |  | 0 |  |  |  |  | Quadrant (FIG. 5b) [3, 9]: Q4; Fibrin % cell toxicity (primary rat microglia [5]; [10]): 1% |
| COc1ccc(C2CNC(=O)C2)cc1OC1CCCC1 (stereo not shown) [Rolipram] |  |  |  | 0 |  | 11 | Q4 | 0 | inhibition at 10 µM ([2]; 48 h): 11% |
| Cc1nc(-c2ccc(OCC(C)C)c(C#N)c2)sc1C(=O)O [Febuxostat] | 3 | 10 |  | 0 |  |  |  |  | Quadrant (FIG. 5b) [3, 9]: Q4; Fibrin % cell toxicity (primary rat microglia [5]; [10]): 1% |
| CC(Cc1cccc(C(F)(F)F)c1)NCCOC(=O)c1ccccc1 (stereo not shown) [Benfluorex] | -26 | -3 | Q4 | 0 | 1 |  |  |  |  |
| COCCCOc1ccnc(C[S+]([O-])c2nc3ccccc3[nH]2)c1C (stereo not shown) [Rabeprazole] |  |  |  | 0 |  | -46 | Q4 | 0 | inhibition at 10 µM ([2]; 48 h): 3% |
| COC(=O)[C@H](Cc1ccccc1)NC(=O)[C@@H](N)CC(=O)O [Aspartame] (H-Asp-Phe-OMe) | -15 | 7 | Q4 | 0 | 1 |  |  |  |  |
| CC(=O)Oc1c(C)cccc1C(=O)O [Cresopyrine, Cresopirine] |  |  |  |  |  |  |  |  | Fibrin % inhibition ([1]; compounds at 10 μM): 13%; LPS % inhibition [2, 6]: 15%; Quadrant (FIG. 5b) [3, 9]: Q4; LPS % cell toxicity (primary rat microglia [4]): 1%; Fibrin % cell toxicity (primary rat microglia [5]; [10]): 1% |
| CCC1(CC)C(=O)NC(=O)NC1=O [Barbital] | -5 | 11 | Q4 | 0 | 0 |  |  |  |  |
| CC(O)(CC(=O)O)CC(=O)O [3-Hydroxy-3-Methyl-Glutaric Acid] | 9 | 8 | Q4 | 0 | 0 |  |  |  |  |
| N[C@@H](CC(=O)N1CCn2c(nnc2C(F)(F)F)C1)Cc1cc(F)c(F)cc1F [Sitagliptin] |  |  |  | 0 |  | -16 | Q4 | 0 | inhibition at 10 µM ([2]; 48 h): 4% |
| CO[C@H]1C[C@H](O[C@H]2[C@H](C)O[C@@H](O[C@@H]3/C(C)=C/C[C@@H]4C[C@@H](C[C@]5(C=C[C@H](C)[C@@H](C6CCCCC6)O5)O4)OC(=O)[C@@H]4C=C(C)[C@@H](O)[C@H]5OC/C(=C\C=C\[C@@H]3C)[C@]54O)C[C@@H]2OC)O[C@@H](C)[C@@H]1O [Doramectin] |  |  |  |  |  |  |  |  | Fibrin % inhibition ([1]; compounds at 10 μM): −9%; LPS % inhibition [2, 6]: 7%; Quadrant (FIG. 5b) [3, 9]: Q4; LPS % cell toxicity (primary rat microglia [4]): 0%; Fibrin % cell toxicity (primary rat microglia [5]; [10]): 1% |

| Compound | inhibition at 10 µM ([1]; compounds at 10 μM) [%] | inhibition at 10 µM [2, 6] [%] | Quadrant (FIG. 5b) [3, 7] | LPS % cell toxicity (primary rat microglia [4]; rat) [%] | Fibrin % cell toxicity (primary rat microglia [5]; [8]) [%] | inhibition at 10 µM [1, 11] [%] | Quadrant (FIG. 5b) [3, 12] | Fibrin % cell toxicity (primary rat microglia [5]; [13]) [%] | also measured |
| --- | --- | --- | --- | --- | --- | --- | --- | --- | --- |
| Nc1c(Br)cc(Br)cc1CN[C@H]1CC[C@H](O)CC1 [Ambroxol Hydrochloride] | -19 | 9 | Q4 | 0 | 0 |  |  |  |  |
| C[C@@H](CO)NC(=O)[C@@H]1C=C2c3cccc4[nH]cc(c34)C[C@H]2N(C)C1 [Ergonovine Maleate] |  |  |  | 0 |  |  |  |  | Fibrin % inhibition ([1]; compounds at 10 μM, 10 µM): 9%; LPS % inhibition ([2]; primary microglia HTS, LPS stimulation, compounds at 10 μM, 10 µM): 7%; Quadrant (FIG. 5b) [3, 9]: Q4; Fibrin % cell toxicity (primary rat microglia [5]; [10]): 1% |
| Cc1ccc(N(CC2=NCCN2)c2cccc(O)c2)cc1 [Phentolamine] |  |  |  | 0 |  | -21 | Q4 | 0 | inhibition at 10 µM ([2]; 48 h): 17% |
| CCCCOc1ccc(OCCCN2CCOCC2)cc1 [Pramocaine] |  |  |  | 0 |  | 14 | Q4 | 0 | inhibition at 10 µM ([2]; 48 h): 13% |
| CC(=O)c1ccc2c(c1)N(CCCN(C)C)c1ccccc1S2 [Acepromazine] | 9 | 31 | Q4 | 1 | 1 |  |  |  |  |
| NC(=O)C1(N2CCCCC2)CCN(CCCC(=O)c2ccc(F)cc2)CC1 [Pipamperone] |  |  |  | 0 |  | -4 | Q4 | 1 | inhibition at 10 µM [2, 14]: 8% |
| CC(=O)Oc1ccccc1C(=O)O [Acetylsalicylic acid] | -21 | 17 | Q4 | 0 | 1 |  |  |  |  |
| CN(C)CCOC(C)(c1ccccc1)c1ccccn1 (stereo not shown) [Doxylamine] | -45 | 17 |  | 0 |  |  |  |  | Quadrant (FIG. 5b) [3, 9]: Q4; Fibrin % cell toxicity (primary rat microglia [5]; [10]): 1% |
| CN1CCCC(n2nc(Cc3ccc(Cl)cc3)c3ccccc3c2=O)CC1 (stereo not shown) [Azelastine, Azelastine Hydrochloride] |  |  | Q4 |  | 0 |  |  |  | Fibrin % inhibition ([1]; compounds at 10 μM): 5%; LPS % inhibition [2, 6]: 11%; LPS % cell toxicity (primary rat microglia [4]): 0% |
| [N-]=[N+]=CC(=O)OC[C@H](N)C(=O)O [Azaserine] | 8 | 2 | Q4 | 0 | 1 |  |  |  |  |
| Oc1c(I)cc(I)c2cccnc12 [Diiodohydroxyquinoline] | -6 | 22 |  | 0 |  |  |  |  | Quadrant (FIG. 5b) [3, 9]: Q4; Fibrin % cell toxicity (primary rat microglia [5]; [10]): 1% |
| C[Se]CC[C@H](N)C(=O)O [Selenomethionine] |  |  |  | 0 |  | -5 | Q4 | 1 | inhibition at 10 µM ([2]; 48 h): 10% |
| NCC(O)CC(=O)O (stereo not shown) [Aminohydroxybutyric Acid] |  |  | Q4 |  | 1 |  |  |  | Fibrin % inhibition ([1]; compounds at 10 μM): −4%; LPS % inhibition [2, 6]: 17%; LPS % cell toxicity (primary rat microglia [4]): 0% |
| C[C@@H](O)CN(CCN(C[C@@H](C)O)C[C@@H](C)O)C[C@@H](C)O [Editol] |  |  |  |  |  |  |  |  | Fibrin % inhibition ([1]; compounds at 10 μM): 24%; LPS % inhibition [2, 6]: 3%; Quadrant (FIG. 5b) [3, 9]: Q4; LPS % cell toxicity (primary rat microglia [4]): 0%; Fibrin % cell toxicity (primary rat microglia [5]; [10]): 1% |
| O=[N+]([O-])c1cc([As](=O)(O)O)ccc1O [Roxarsone] |  |  |  | 1 |  |  | Q4 | 1 | Fibrin % inhibition [1, 11]: −18%; LPS % inhibition [2]: 17% |
| C/C(=C(\CCOP(=O)(O)O)SC(=O)c1ccccc1)N(C=O)Cc1cnc(C)nc1N [Benfotiamine] | -47 | 18 | Q4 | 0 | 0 |  |  |  |  |
| CN(C)C(=O)Oc1ccc[n+](C)c1 [Pyridostigmine] |  |  |  | 0 |  | 4 | Q4 | 1 | inhibition at 10 µM ([2]; 48 h): 9% |

Source: patent publication US20210330611A1, “THERAPY FOR NEUROLOGICAL DISEASES/DISORDERS” (priority 2020, published 2021)
